Source: US6492536B2, “Steroids, their use as medicaments, their preparation process, the intermediates of this process and the compositions containing them” (Aventis Pharma S.A., priority 1996, dated 2002)

What was measured:
Female Wistar rats [1] = test: Granuloma test (cotton pellets), anti-inflammatory activity; type: in vivo; conditions: rat, oral route, once a day for four days
Protocol: (§1) Granuloma Test—Thymolytic Activity
(§2) The anti-inflammatory activity was studied according to the standard granuloma test. The technique used is a modification of the method of Meier and Coll. (Experentia, 1950, 6, 469). Female Wistar rats, weighing 90 to 100 g, receive an implantation of two cotton pellets of 10 mg each under the skin of the thorax. The products are immediately administered by oral route, a the rate of once a day for four days. The animals are then sacrificed. The pellets surrounded by the granuloma tissue formed, are weighed in the fresh state, then after eighteen hours at 60° C. The weight of the granuloma is obtained by deduction of the initial weight of the cotton.

Female Wistar rats [2] = test: Thymolytic activity (thymus weight in granuloma test); type: in vivo; conditions: rat, oral route, once a day for four days
Protocol: as §1, §2
The thymuses are also removed and weighed in order to determine the thymolytic activity of the products.

Male Wistar rats = test: Retarded hypersensitivity test (M. Tuberculosis), immunosuppressive activity; type: in vivo; conditions: oral route from day 4 to 7, paw oedema 24 hours after antigen; for ED50: Mycobacterium tuberculosis, 4TO7, rat, read-out: Retarded hypersensitivity (M. Tuberculosis, rat) ED 50
Protocol: 3) Immunosuppressive Activity.
The immunosuppressive activity was studied according to the retarded hypersensitivity test described in the article by Hambleton et al. (Agents and Actions, […], 29, 328). Male Wistar rats weighing 150 to 160 g are sensitized on day 0 with a suspension of Mycobacterium Tuberculosis 4 mg/ml in parrafin oil by a sub-cutaneous injection at the base of the tail (0.1 ml/animal).
The products are administered by oral route from day 4 to 7.
On day 7, one hour after the last administration, the animals receive an injection of the soluble fraction of the antigen triggering the hypersensitivity reaction: 0.4 mg/rat in 0.2 ml by intraplantar route in a rear paw, the other receives the same quantity of solvent.
The oedema is measured 24 hours afterwards using an UGO BASIL plethysmometer from APELEX.
The activity of the products is evaluated by the percentage reduction in the increase of the injected paw relative to that of the control animals.

collagenase promoter = test: Regulation of transcription in transfected Hela cells: transrepression (Coll (-517/+63) CAT plasmid); type: cell-based; conditions: 24 hours, CAT ELISA; for inhibition at 1 µM / inhibition at 0.1 µM / inhibition at 0.01 µM / inhibition at 0.001 µM: Homo sapiens
Protocol: (§3) The molecules according to the invention have been tested in models of HELA cells transfected with the GRE-tk-CAT plasmid (transactivation), or with the pColl-CAT plasmid (transrepression). (Cf. TEST 1)
(§4) I) Study of the regulation of transcription in transfected Hela cells.
(§5) Hela cells (ATCC ref: CCL-2) are distributed in a 6-well plate, in a nutritive medium with a density of 4×10^5 cells/ml, 24 hours before the transfection, and are incubated at 37° C. The transitory transfections are produced according to the precipitate method with calcium phosphate. In the case of the study of transactivation, the cells are transfected with 1 μg of GRE-tk-CAT plasmid, 1 μg of polyII β-GAL plasmid and KS plasmid (Stratagene), s.q.f. 5 μg. In the case of the study of transrepression, the cells are transfected with 3 μg of Coll (−517/+63) CAT plasmid, 250 ng of pSV-cjun plasmid, 1 μg of polyII β-GAL plasmid and KS plasmid (Stratagene), s.q.f. 5 μg. The precipitate is left in contact with the cells for 16 hours. These are then rinsed and covered with the nutritive medium containing different concentrations of Dexamethasone or the products to be studied (10^−9M, 10^−8M, 10^−7M, 10^−6M). 24 hours after the addition of the products, the cells are lysed in 250 μl of MOPS-NaCl-Triton X-100 buffer. The CAT is dosed in the cellular extracts using the ELISA Kit (Boehringer Mannheim).

male mice = test: Ear oedema test induced by croton oil; type: in vivo; conditions: applied to the ear, 6 hours
Protocol: Ear Oedema Test Induced by Croton Oil
The products have also been tested in the model of the ear oedema of mice using croton oil according to the method described in Tonelli et al. (Endocrinology, 1965, 77, 625-634). An ear oedema is induced in male mice weighing 18 to 22 g, by using croton oil (2% v/v) in a pyridine-water-ether solution 4:1:14.6 (by volume). The animals are sacrificed 6 hours later, the ears are removed and weighed. The difference in weight between the ear treated with croton oil and the contralateral ear (non-treated) allows 100% of the oedema to be determined. The products to be tested are dissolved in the solution of croton oil and applied to the ear.

GRE-tk promoter = test: Regulation of transcription in transfected Hela cells: transactivation (GRE-tk-CAT plasmid); type: cell-based; conditions: 24 hours, CAT ELISA
Protocol: as §3, §4, §5

SMILES | Granuloma ED 50 (Female Wistar rats [1]) [mg/kg/po] | Thymolysis ED 50 (Female Wistar rats [2]) [mg/kg/po] | ED50 (Male Wistar rats) [mg/kg] | inhibition at 1 µM (collagenase promoter; 10^-6 M) [%] | inhibition at 0.1 µM (collagenase promoter; 10^-7 M) [%] | inhibition at 0.01 µM (collagenase promoter; 10^-8 M) [%] | inhibition at 0.001 µM (collagenase promoter; 10^-9 M) [%] | Oedema using croton oil (mouse) ED 50 (male mice) [μg/ear] | Activation of GRE-tk (%) (GRE-tk promoter; 10^-6 M) | Activation of GRE-tk (%) (GRE-tk promoter; 10^-7 M) | Activation of GRE-tk (%) (GRE-tk promoter; 10^-8 M) | Activation of GRE-tk (%) (GRE-tk promoter; 10^-9 M) | Retarded hypersensitivity (M. Tuberculosis, rat) ED 50 (Male Wistar rats) [mg/kg] | Inhibition of the Coll promoter (%) (collagenase promoter; 10^-6 M) | Inhibition of the Coll promoter (%) (collagenase promoter; 10^-7 M) | Inhibition of the Coll promoter (%) (collagenase promoter; 10^-8 M) | Inhibition of the Coll promoter (%) (collagenase promoter; 10^-9 M)
C[C@@H]1C[C@H]2[C@@H]3CCC4=CC(=O)C=C[C@]4(C)[C@@]3(F)[C@@H](O)C[C@]2(C)[C@@]1(O)C(=O)CO [Dexamethasone, reference compound] | 0.1 | <0.05 | 0.05 | 93.1 | 96.6 | 87.6 | 42.2 | 1 | 98.82 +/− 1.18% | 89.48 +/− 2.26% | 53.38 +/− 2.65% | 7.34 +/− 2.57% | – | – | – | – | –
CSCC(=O)[C@H]1[C@H](C)C[C@H]2[C@@H]3CCC4=CC(=O)C=C[C@]4(C)[C@@]3(F)[C@@H](O)C[C@@]21C [Example 1, 9α-fluoro-11β-hydroxy-16α-methyl-21-thiomethyl-pregna-1,4-diene-3,20-dione] | 5 | 2.5 | – | – | – | – | – | 10 | 37.56 +/− 1.9% | 35.21 +/− 2.24% | 27.74 +/− 1.05% | 3.78 +/− 0.87% | 2.3 | 81.79 +/− 2.98% | 57.61 +/− 2.46% | 37.12 +/− 6.7% | 3.57 +/− 3.09%
C[C@@H]1C[C@H]2[C@@H]3CCC4=CC(=O)C=C[C@]4(C)[C@@]3(F)[C@@H](O)C[C@]2(C)[C@H]1C(=O)CC#N [Example 2, 9α-fluoro-11β-hydroxy-16α-methyl-pregna-1,4-diene-3,20-dione-21-carbonitrile] | >7 | 2.5 | 1.5 | 75.6 | 81.3 | 36.2 | 20.6 | 2 | 16.92 +/− 3.55% | 10.45 +/− 4.33% | 1.34 +/− 1.33% | 0% | – | – | – | – | –
C[C@]12C=CC(=O)C=C1CC[C@@H]1[C@@H]2[C@@H](O)C[C@@]2(C)[C@H]1CC[C@]2(O)C(=O)CO [Prednisolone, reference compound] | 2.5 | 1.6 | 5 to 20 | – | – | – | – | 4 | – | – | – | – | – | – | – | – | –
